From ChEMBL document CHEMBL1201862, “PubChem BioAssay data set” (2004)
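All cell lines were grown in 96-well plates and treated with compound for 48 hours. GI50: concentration for 50% inhibition of growth.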 The source made the active and inactive calls. Rule as the data show it: active = GI50 up to about 1.1 µM and inactive = higher. Where a SMILES comes first, the peptide text is derived from it. [ ]: non-standard residue; d: D form. The star is where a group is joined. mTyr = N[CH](Cc1cccc(O)c1)C(=O)O; Cbz = O=C(OCc1ccccc1)*; OBn = c1ccc(CO*)cc1

Experiments:
Test in all cases: NCI tumour cell line growth inhibition, 48 h
A498 = test system: A498
COLO 205 = test system: COLO 205
HL-60 = test system: HL-60
HT-29 = test system: HT-29
IGROV-1 = test system: IGROV-1
K562 = test system: K562
M14 = test system: M14
MOLT-4 = test system: MOLT-4
Malme-3M = test system: Malme-3M
OVCAR-8 = test system: OVCAR-8
SN12C = test system: SN12C
SNB-19 = test system: SNB-19
SR = test system: SR
SW-620 = test system: SW-620
TK-10 = test system: TK-10
LOX IMVI = test system: LOX IMVI
SF-268 = test system: SF-268
SF-539 = test system: SF-539
OVCAR-3 = test system: OVCAR-3

Compound | GI50 (A498) | GI50 (COLO 205) | GI50 (HL-60) | GI50 (HT-29) | GI50 (IGROV-1) | GI50 (K562) | GI50 (M14) | GI50 (MOLT-4) | GI50 (Malme-3M) | GI50 (OVCAR-8) | GI50 (SN12C) | GI50 (SNB-19) | GI50 (SR) | GI50 (SW-620) | GI50 (TK-10) | GI50 (LOX IMVI) | GI50 (SF-268) | GI50 (SF-539) | GI50 (OVCAR-3)
COC(=O)C(Cc1cccc(O)c1)NC(=O)C(CC(=O)OCc1ccccc1)NC(=O)OCc1ccccc1 (stereo not given) (Cbz-Asp(OBn)-[mTyr]-OMe; configuration not given here) | > 100 µM (inactive) | > 100 µM (inactive) | 35.4 µM (inactive) | 88.5 µM (inactive) | 30.6 µM (inactive) | > 100 µM (inactive) | > 100 µM (inactive) | 32.1 µM (inactive) | > 100 µM (inactive) | > 100 µM (inactive) | > 100 µM (inactive) | 65.8 µM (inactive) | 46.1 µM (inactive) | > 100 µM (inactive) | > 100 µM (inactive) | – | – | – | –
CCCCCCCCCCC/C(=N/O)c1ccc(O)c2ncccc12 | – | 45.9 µM (inactive) | 0.19 µM (active) | 4.11 µM (inactive) | – | – | 1.76 µM (inactive) | – | 2.47 µM (inactive) | 4.29 µM (inactive) | – | 5.74 µM (inactive) | – | 3.86 µM (inactive) | 7.35 µM (inactive) | 2.37 µM (inactive) | 2.9 µM (inactive) | 2.02 µM (inactive) | –
COc1ccccc1NC(=O)c1nc2ccc([N+](=O)[O-])cc2nc1C | > 100 µM (inactive) | > 100 µM (inactive) | – | > 100 µM (inactive) | > 100 µM (inactive) | > 100 µM (inactive) | > 100 µM (inactive) | > 100 µM (inactive) | > 100 µM (inactive) | > 100 µM (inactive) | > 100 µM (inactive) | > 100 µM (inactive) | – | > 100 µM (inactive) | > 100 µM (inactive) | > 100 µM (inactive) | > 100 µM (inactive) | > 100 µM (inactive) | > 100 µM (inactive)
Cc1cc(-c2cscn2)c(O)c([N+](=O)[O-])c1 | 28.7 µM (inactive) | 28.3 µM (inactive) | 34.8 µM (inactive) | 89.3 µM (inactive) | 55 µM (inactive) | 34.2 µM (inactive) | 90.4 µM (inactive) | – | 70.6 µM (inactive) | 48.3 µM (inactive) | 45 µM (inactive) | > 100 µM (inactive) | – | 75.7 µM (inactive) | 52.7 µM (inactive) | 29.4 µM (inactive) | – | 56 µM (inactive) | –
O=C1CNNC(Cn2nc(-c3ccccc3)c3ccccc3c2=O)=N1 | > 100 µM (inactive) | > 100 µM (inactive) | > 100 µM (inactive) | > 100 µM (inactive) | > 100 µM (inactive) | > 100 µM (inactive) | > 100 µM (inactive) | > 100 µM (inactive) | > 100 µM (inactive) | > 100 µM (inactive) | > 100 µM (inactive) | > 100 µM (inactive) | > 100 µM (inactive) | > 100 µM (inactive) | > 100 µM (inactive) | – | > 100 µM (inactive) | > 100 µM (inactive) | > 100 µM (inactive)
CCOC(=O)C1Nc2ccccc2[C@H]2OCC[C@@H]12 (stereo not given in full) | > 100 µM (inactive) | > 100 µM (inactive) | > 100 µM (inactive) | > 100 µM (inactive) | > 100 µM (inactive) | > 100 µM (inactive) | > 100 µM (inactive) | > 100 µM (inactive) | > 100 µM (inactive) | > 100 µM (inactive) | > 100 µM (inactive) | > 100 µM (inactive) | – | > 100 µM (inactive) | > 100 µM (inactive) | > 100 µM (inactive) | > 100 µM (inactive) | > 100 µM (inactive) | > 100 µM (inactive)
COc1ccc(NC(=O)CC(=O)N/N=C/c2ccc(N(CCC#N)S(=O)(=O)c3ccccc3)cc2)cc1 | – | > 100 µM (inactive) | > 100 µM (inactive) | > 100 µM (inactive) | > 100 µM (inactive) | > 100 µM (inactive) | > 100 µM (inactive) | > 100 µM (inactive) | > 100 µM (inactive) | > 100 µM (inactive) | – | > 100 µM (inactive) | > 100 µM (inactive) | > 100 µM (inactive) | > 100 µM (inactive) | > 100 µM (inactive) | > 100 µM (inactive) | – | > 100 µM (inactive)
Cc1cccc(C)c1NC(=O)C(=O)CC(=O)/C=C/c1ccccc1 | > 100 µM (inactive) | – | > 100 µM (inactive) | > 100 µM (inactive) | > 100 µM (inactive) | > 100 µM (inactive) | > 100 µM (inactive) | > 100 µM (inactive) | > 100 µM (inactive) | > 100 µM (inactive) | > 100 µM (inactive) | > 100 µM (inactive) | > 10 µM (inactive) | > 100 µM (inactive) | > 100 µM (inactive) | > 100 µM (inactive) | > 100 µM (inactive) | > 100 µM (inactive) | > 100 µM (inactive)
CN1CCN(c2nc3cc(F)ccc3n3cccc23)CC1 | – | 26.9 µM (inactive) | 39.1 µM (inactive) | 24.9 µM (inactive) | 30.8 µM (inactive) | 20.4 µM (inactive) | 18 µM (inactive) | 23.1 µM (inactive) | 25.3 µM (inactive) | 51.8 µM (inactive) | 48.5 µM (inactive) | 60.3 µM (inactive) | 43.8 µM (inactive) | 30.5 µM (inactive) | 39.6 µM (inactive) | 15.8 µM (inactive) | 48.6 µM (inactive) | 21.1 µM (inactive) | 82.8 µM (inactive)
COc1ccc2nc3cc(Cl)ccc3c(NCCC(=O)OCC(O)C(O)C(O[C@H](C)C(=O)NC(C)C(=O)NC(CCC(N)=O)C(=O)OCc3ccccc3)C(C=O)NC(C)=O)c2c1 (stereo not given in full) | 21 µM (inactive) | 18.3 µM (inactive) | 25.1 µM (inactive) | 17.8 µM (inactive) | 16 µM (inactive) | 14 µM (inactive) | 19.5 µM (inactive) | 15.4 µM (inactive) | > 100 µM (inactive) | 16 µM (inactive) | 16.1 µM (inactive) | 24.7 µM (inactive) | 4.03 µM (inactive) | 15 µM (inactive) | 22.8 µM (inactive) | – | 17.9 µM (inactive) | 16.8 µM (inactive) | 19.2 µM (inactive)
COC(=O)CNC(=O)Nc1cc(N2C(=O)ON3C2C(C)(C)N(O)C3(C)C)ccc1C (stereo not given) | – | > 100 µM (inactive) | – | > 100 µM (inactive) | > 100 µM (inactive) | > 100 µM (inactive) | > 100 µM (inactive) | > 100 µM (inactive) | > 100 µM (inactive) | > 100 µM (inactive) | > 100 µM (inactive) | > 100 µM (inactive) | > 100 µM (inactive) | > 100 µM (inactive) | > 100 µM (inactive) | > 100 µM (inactive) | > 100 µM (inactive) | > 100 µM (inactive) | > 100 µM (inactive)
CCCCCCCC/C=C\CCCCCCCC(=O)NCCN(CCN)C(=O)CCCCCCC/C=C\CCCCCCCC | > 100 µM (inactive) | > 100 µM (inactive) | > 100 µM (inactive) | > 100 µM (inactive) | > 100 µM (inactive) | > 100 µM (inactive) | > 100 µM (inactive) | > 100 µM (inactive) | > 100 µM (inactive) | > 100 µM (inactive) | > 100 µM (inactive) | > 100 µM (inactive) | > 100 µM (inactive) | > 100 µM (inactive) | > 100 µM (inactive) | > 100 µM (inactive) | > 100 µM (inactive) | – | 78.7 µM (inactive)
COC(=O)CC(=O)C[P+](c1ccccc1)(c1ccccc1)c1ccccc1 | – | 168 µM (inactive) | 48.9 µM (inactive) | 121 µM (inactive) | > 218 µM (inactive) | 68.5 µM (inactive) | – | 74 µM (inactive) | 192 µM (inactive) | 150 µM (inactive) | 95.3 µM (inactive) | > 218 µM (inactive) | 58.1 µM (inactive) | 121 µM (inactive) | > 218 µM (inactive) | > 218 µM (inactive) | > 218 µM (inactive) | 197 µM (inactive) | 69.7 µM (inactive)
O=C(Nc1cc(Cl)c(Cl)cc1Cl)C(=O)C(C(=O)c1ccc2ccccc2c1)C1OC(=O)c2ccccc21 (stereo not given) | 12 µM (inactive) | 17 µM (inactive) | 13.2 µM (inactive) | 18.2 µM (inactive) | 16.3 µM (inactive) | – | 21.8 µM (inactive) | – | 13.2 µM (inactive) | 8 µM (inactive) | 18.2 µM (inactive) | 11.6 µM (inactive) | 4.66 µM (inactive) | 10.8 µM (inactive) | – | 15.5 µM (inactive) | > 10 µM (inactive) | 3.39 µM (inactive) | 16.3 µM (inactive)
CCCCNC(=O)C1C2CCC(O2)C1C(=O)O (stereo not given) | 12.7 µM (inactive) | 16.6 µM (inactive) | – | 23.1 µM (inactive) | > 100 µM (inactive) | – | 14.2 µM (inactive) | 18.1 µM (inactive) | 21.5 µM (inactive) | 20.5 µM (inactive) | 14 µM (inactive) | 23.7 µM (inactive) | 18.8 µM (inactive) | 1.71 µM (inactive) | 18.1 µM (inactive) | 16.5 µM (inactive) | 17.7 µM (inactive) | 21 µM (inactive) | 16 µM (inactive)
O=C(O)CCSCCCN1C(=O)c2ccccc2C1=O | – | > 100 µM (inactive) | – | > 100 µM (inactive) | > 100 µM (inactive) | > 100 µM (inactive) | – | > 100 µM (inactive) | > 100 µM (inactive) | > 100 µM (inactive) | > 100 µM (inactive) | > 100 µM (inactive) | > 100 µM (inactive) | > 100 µM (inactive) | > 100 µM (inactive) | – | > 100 µM (inactive) | > 100 µM (inactive) | > 100 µM (inactive)
